The source of these data is US20230416329A1, “A PEPTIDE WITH DISULFIDE BONDS AND INHIBITORY ACTIVITY AGAINST SERINE PROTEASES, DERIVED HYBRID PEPTIDES THEREOF, AND USES THEREOF” (INSTITUTE OF MATERIA MEDICA , CHINESE ACADEMY OF MEDICAL …, priority 2020, published 2023).

Like-named read-outs stand apart in the source and are kept apart here. Bridge positions count the residues as written; N and C are the ends. Square brackets hold non-standard residues; d marks the D form. Peptide text beside a SMILES is read from it. Abu = CC[C@H](N)C(=O)O

What is called Ki is a dissociation constant, usually derived from enzyme kinetics or from competition with a known ligand. By IC50 is commonly meant the concentration needed to halve the response being measured.

In the assay the target is T1, bovine trypsin (Bos taurus, UniProt P00760).
T1 sequence (P00760 24-246): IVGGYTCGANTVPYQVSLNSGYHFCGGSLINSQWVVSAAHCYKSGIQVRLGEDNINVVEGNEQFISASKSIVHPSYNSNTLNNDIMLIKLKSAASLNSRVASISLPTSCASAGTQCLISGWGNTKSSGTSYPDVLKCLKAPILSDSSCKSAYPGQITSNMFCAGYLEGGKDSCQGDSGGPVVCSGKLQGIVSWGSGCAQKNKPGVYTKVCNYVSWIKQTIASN
In words: Trypsin inhibitory activity of peptides (BApNA hydrolysis, OD405; IC50, Ki, residual activity). The class given is biochemical. The settings on record: for Ki: Ki=IC50/(1+S/Km), Km 0.33 mM, read-out: Ki; for IC50: trypsin 50 nM, BApNA 1.22 mM, read-out: IC50. The method, boiled down: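 Trypsin (50 nM final) preincubated with peptides at 37 °C in 50 mM Tris-HCl pH 7.8, 20 mM CaCl2; BApNA added (1.22 mM final), 260 min at 37 °C, then OD405 read. Residual activity from enzyme-only and substrate-only controls; IC50 fitted and converted to Ki via Ki=IC50/(1+S/Km), Km measured separately for BApNA.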

In the case of `CC[C@H](C)[C@@H]1NC(=O)[C@H](CO)NC(=O)[C@H](CCCCN)NC(=O)[C@H]([C@@H](C)O)NC(=O)[C@H](C)NC(=O)[C@H](CCCNC(=N)N)NC(=O)CNC(=O)[C@@H](N)CSSC[C@@H](C(=O)N[C@@H](Cc2ccc(O)cc2)C(=O)O)NC(=O)[C@H](CCC(N)=O)NC(=O)[C@@H]2CCCN2C(=O)[C@@H]2CCCN2C1=O` [BT12] (H-CGRATKSIPPQCY-OH; disulfide 1-12; N-terminus and C-terminus assumed), the “inhibitory activity against trypsin (in words)” value (“inhibitory activity” for short) is listed as “significant impact on their anti-trypsisn activities”. Besides, the Residual trypsin activity (peptide 0.0488 μM) worked out at 100.5 ± 2.0%. Where the note is “peptide 0.2439 μM”, the Residual trypsin activity was 106.5 ± 3.4%. Further, the Residual trypsin activity (peptide 0.98 μM) was 107.9 ± 1.4%. In addition, the Residual trypsin activity (peptide 3.90 μM) is 68.3 ± 0.1%. For the same molecule, the Residual trypsin activity (peptide 5.85 μM) worked out at 24.0 ± 1.2%. Also, the Residual trypsin activity (peptide 9.76 μM) was determined as 0.7 ± 0.1%. Also, under “peptide 14.63 μM”, the Residual trypsin activity turned out to be 0.3 ± 0.1%. Besides, the Residual trypsin activity (peptide 19.51 μM) is −0.2 ± 0.1%.

For `CC[C@H](C)[C@@H]1NC(=O)[C@H](CO)NC(=O)[C@H](CCCCN)NC(=O)[C@H]([C@@H](C)O)NC(=O)[C@@H](NC(=O)[C@@H](N)CCCNC(=N)N)CSSC[C@@H](C(=O)N[C@@H](Cc2c[nH]cn2)C(=O)O)NC(=O)[C@H](CCC(N)=O)NC(=O)[C@@H]2CCCN2C(=O)[C@@H]2CCCN2C1=O` [BT63] (H-RCTKSIPPQCH-OH; disulfide 2-10; N-terminus and C-terminus assumed), the inhibition constant (Ki) amounted to 20 nM and the IC50 turned out to be 90 nM.

For `CC[C@@H]1NC(=O)[C@@H](N)CSSC[C@@H](C(=O)N[C@@H](Cc2ccccc2)C(=O)O)NC(=O)[C@H]([C@@H](C)CC)NC(=O)[C@@H]2CCCN2C(=O)[C@@H]2CCCN2C(=O)[C@H]([C@@H](C)CC)NC(=O)[C@H](CO)NC(=O)[C@H](CCCCN)NC(=O)[C@H]([C@@H](C)O)NC(=O)[C@H](C)NC(=O)[C@H](CCCNC(=N)N)NC1=O` [BT74] (H-C[Abu]RATKSIPPICF-OH; disulfide 1-12; N-terminus and C-terminus assumed), the “inhibitory activity” value was “excellent trypsin inhibitory activities”, the Ki is 20 nM and the IC50 was determined as 90 nM.

On to `CC[C@H](C)[C@@H]1NC(=O)[C@@H]2CCCN2C(=O)[C@@H]2CCCN2C(=O)[C@H]([C@@H](C)CC)NC(=O)[C@H](CO)NC(=O)[C@H](CCCCN)NC(=O)[C@H]([C@@H](C)O)NC(=O)[C@H](CCC(N)=O)NC(=O)[C@H](CCCNC(=N)N)NC(=O)CNC(=O)[C@@H](N)CSSC[C@@H](C(=O)N[C@@H](Cc2ccccc2)C(=O)O)NC1=O` [BT54] (H-CGRQTKSIPPICF-OH; disulfide 1-12; C-terminus assumed), for which the “inhibitory activity” value is on record as “good inhibitory activities against trypsin”, the Ki was 10 nM and the IC50 worked out at 60 nM. In addition, the “inhibitory activity” value (listed as SEQ ID NO: 54) was “excellent trypsin inhibitory activities”. In addition, under “peptide 0.000098 μM”, the Residual trypsin activity came out at 101.0 ± 3.9%. For the same molecule, the Residual trypsin activity (peptide 0.00098 μM) is 99.2 ± 1.7%. The Residual trypsin activity (peptide 0.0098 μM) is listed as 99.9 ± 4.1%. The Residual trypsin activity (peptide 0.0488 μM) stood at 65.8 ± 6.7%. For the same molecule, under “peptide 0.0585 μM”, the Residual trypsin activity is reported as 58.4 ± 4.3%. Also, the Residual trypsin activity (peptide 0.0780 μM) was found to be 24.3 ± 2.4%. Moreover, the Residual trypsin activity (peptide 0.098 μM) is listed as 7.2 ± 2.4%. The Residual trypsin activity (peptide 0.98 μM) worked out at 0.1 ± 0.0%. Besides, the Residual trypsin activity (peptide 9.76 μM) is listed as −0.1 ± 0.0%.

Take `CC[C@H](C)[C@@H]1NC(=O)[C@H](CO)NC(=O)[C@H](CCCNC(=N)N)NC(=O)[C@H]([C@@H](C)O)NC(=O)[C@H](C)NC(=O)[C@H](CCCNC(=N)N)NC(=O)CNC(=O)[C@@H](N)CSSC[C@@H](C(=O)N[C@@H](Cc2ccccc2)C(=O)O)NC(=O)[C@H]([C@@H](C)CC)NC(=O)[C@@H]2CCCN2C(=O)[C@H](C)NC1=O` [BT20] (H-CGRATRSIAPICF-OH; disulfide 1-12 (inferred); N-terminus and C-terminus assumed): the IC50 was above 50000 nM.

With `CC(C)C[C@@H]1NC(=O)[C@H](CO)NC(=O)[C@H](CCCCN)NC(=O)[C@H]([C@@H](C)O)NC(=O)[C@@H](NC(=O)[C@@H](N)CCCNC(=N)N)CSSC[C@@H](C(=O)N[C@@H](CO)C(=O)O)NC(=O)[C@H](CCC(N)=O)NC(=O)[C@@H]2CCCN2C(=O)[C@@H]2CCCN2C1=O` [BT65] (H-RCTKSLPPQCS-OH; disulfide 2-10; C-terminus assumed), the “inhibitory activity” value is listed as “excellent trypsin inhibitory activities” and the Ki is 130 nM.

In the case of `CC[C@H](C)[C@@H]1NC(=O)[C@H](CO)NC(=O)[C@H](CCCCN)NC(=O)[C@H]([C@@H](C)O)NC(=O)[C@H](Cc2c[nH]c3ccccc23)NC(=O)[C@H](CCCNC(=N)N)NC(=O)CNC(=O)[C@@H](N)CSSC[C@@H](C(=O)O)NC(=O)[C@@H]2CCCN2C(=O)[C@H](CCCCN)NC(=O)[C@@H]2CCCN2C(=O)[C@@H]2CCCN2C1=O` [BT38] (H-CGRWTKSIPPKPC-OH; disulfide 1-13 (inferred); N-terminus and C-terminus assumed), the IC50 is above 50000 nM.

Take `CC[C@H](C)[C@@H]1NC(=O)[C@@H]2CCCN2C(=O)[C@@H]2CCCN2C(=O)[C@H]([C@@H](C)CC)NC(=O)[C@H](CO)NC(=O)[C@H](CCCCN)NC(=O)[C@H]([C@@H](C)O)NC(=O)[C@H](C(C)C)NC(=O)[C@H](CCCNC(=N)N)NC(=O)CNC(=O)[C@@H](N)CSSC[C@@H](C(=O)N[C@@H](Cc2ccccc2)C(=O)O)NC1=O` [BT51] (H-CGRVTKSIPPICF-OH; disulfide 1-12): the “inhibitory activity” value is recorded as “excellent trypsin inhibitory activities” and the Ki was 90 nM.

Regarding `CC[C@H](C)[C@@H]1NC(=O)[C@@H]2CCCN2C(=O)[C@@H]2CCCN2C(=O)[C@H]([C@@H](C)CC)NC(=O)[C@H](CO)NC(=O)[C@H](CCCCN)NC(=O)[C@H]([C@@H](C)O)NC(=O)[C@H](CCC(=O)O)NC(=O)[C@H](CCCNC(=N)N)NC(=O)CNC(=O)[C@@H](N)CSSC[C@@H](C(=O)N[C@@H](Cc2ccccc2)C(=O)O)NC1=O` [BT58] (H-CGRETKSIPPICF-OH; disulfide 1-12; N-terminus and C-terminus assumed), the Ki is 30 nM and the IC50 is 120 nM.

Take `CC[C@H](C)[C@@H]1NC(=O)[C@@H]2CCCN2C(=O)[C@@H]2CCCN2C(=O)[C@H]([C@@H](C)CC)NC(=O)[C@H](CO)NC(=O)[C@H](CCCCN)NC(=O)[C@H](C)NC(=O)[C@H](C)NC(=O)[C@H](CCCNC(=N)N)NC(=O)CNC(=O)[C@@H](N)CSSC[C@@H](C(=O)N[C@@H](Cc2ccccc2)C(=O)O)NC1=O` [BT26] (H-CGRAAKSIPPICF-OH; disulfide 1-12; N-terminus and C-terminus assumed): the Residual trypsin activity runs as follows: (peptide 0.0098 μM) 99.5 ± 0.9%; (peptide 0.098 μM) 100.2 ± 1.4%; (peptide 0.98 μM) 94.5 ± 0.7%; (peptide 1.95 μM) 77.6 ± 3.1%; (peptide 2.439 μM) 55.1 ± 1.3%; (peptide 3.90 μM) 1.4 ± 0.1%. Besides, the Residual trypsin activity was 0.4 ± 0.1% (peptide 9.76 μM), 0.1 ± 0.0% (peptide 97.56 μM) and 0.5 ± 0.0% (peptide 975.61 μM).
